Measured values: paper PMC3522636, “4F Decreases IRF5 Expression and Activation in Hearts of Tight Skin Mice” (PLoS ONE, 2012)
“Also recorded” adds a separate entry of the source.

What was measured:
[1] = test system: Human umbilical vein endothelial cells; experiment: Cellular uptake of B-4F in endothelial cells; assay type: cell-based; details: vs unlabeled 4F, confocal; for increase of fluorescence intensity in EC: 4 hours, fluorescein-streptavidin
Method: Human umbilical vein endothelial cells (EC; Lonza, Walkersville, MD) were incubated in EGM complete media containing 4F or B-4F (10 and 50 µg/ml) for 4 hours. The EC cultures were washed with PBS, fixed in PBS containing 1% paraformaldehyde, and permeabilized with PBS containing 0.5% Triton-X. The permeabilized sections were incubated with fluorescein-conjugated streptavidin (1 µg/ml) for 30 minutes followed by 3 PBS washes. The fixed and fluorescently labeled slides were mounted in aqueous mounting media and sections inspected and analyzed by confocal microscopy.

IRF5 = biological target: T1, IRF5 (Homo sapiens, UniProt Q13568); experiment: B-4F pulldown assay from EC cytosolic fractions spiked with recombinant IRF5; assay type: binding; details: immunoblot
T1 construct: purchased GenScript USA Inc
T1 sequence (Q13568 1-498): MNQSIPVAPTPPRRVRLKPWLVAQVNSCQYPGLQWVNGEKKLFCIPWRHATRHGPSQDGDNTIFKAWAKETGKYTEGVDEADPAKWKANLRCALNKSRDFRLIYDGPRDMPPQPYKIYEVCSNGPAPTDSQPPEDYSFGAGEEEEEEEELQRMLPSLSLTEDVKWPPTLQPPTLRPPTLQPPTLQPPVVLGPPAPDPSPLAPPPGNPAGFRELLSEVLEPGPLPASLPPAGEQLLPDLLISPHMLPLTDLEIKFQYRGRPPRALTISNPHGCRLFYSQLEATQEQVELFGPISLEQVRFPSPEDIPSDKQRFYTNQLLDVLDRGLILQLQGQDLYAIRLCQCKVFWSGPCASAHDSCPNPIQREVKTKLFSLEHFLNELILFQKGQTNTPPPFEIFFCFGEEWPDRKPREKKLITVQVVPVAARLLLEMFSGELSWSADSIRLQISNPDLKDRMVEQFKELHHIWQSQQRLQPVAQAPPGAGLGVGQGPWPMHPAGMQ
Method: B-4F Pulldown Assays: To determine whether 4F interacts with IRF5 in the presence of cystosol proteins, we performed 4F pulldown assays on EC cytosolic fractions spiked with recombinant IRF5. Briefly, cytosolic EC fractions were precleared with SA agarose beads (Cat#15942-050, Invitrogen) for 30 minutes at 4°C. IRF5 interactions were enhanced by adding recombinant IRF5 (2% wt/vol, Genscript USA Inc.) to the endothelial cytosolic fractions. 4F and B-4F were added to the cytosolic fractions and incubated for 3 hours at 4°C. SA agarose beads were added and the samples mixed end-over-end overnight at 4°C. The following day the SA agarose beads were isolated by centrifugation. The proteins associated with B-4F were released from the beads with Laemmli buffer and separated by SDS-PAGE (4–15%) as above. IRF5 levels in the pulldown samples were determined by autoradiography of immunoblots as above.

[2] = biological target: biotin-labeled 4F (biotin-labeled …-NH2); experiment: pull-down; B-4F added to precleared endothelial cell cytosolic fractions spiked with recombinant IRF5, 3 h at 4°C; SA agarose beads overnight at 4°C; immunoblot for IRF5

Row | Substance | increase of fluorescence intensity in EC ([1]; B-4F 10 µg/ml) | increase of fluorescence intensity in EC ([1]; B-4F 50 µg/ml, p≤0.05) | uptake into EC (in words) ([1]; B-4F 10 and 50 µg/ml, 4 hours (method), 3 hours (Figure 6)) | association with IRF5 in presence of EC cytosolic proteins (in words) (IRF5; 3 hours at 4°C, SA agarose beads overnight at 4°C) | IRF5 bound to the B-4F precipitate relative to control (IRF5; EC lysates with recombinant IRF5 (10 µg/mL), SA-agarose pulldown, lane 2 vs control lane 1) | fold IRF5 in the B-4F precipitate over control lane 1 [2]
1 | biotin-labeled DWFKAFYDKVAEKFKEAF-NH2 [B-4F, biotin-labeled 4F, synthesized with one more cycle with FMOC-Lys(biotinyl-ε-aminocaproyl)-OH] | approximately 30% | 3.6 fold | greater fluorescence in EC cultures incubated with 10 and 50 µg/ml of B-4F than in EC cultures incubated with equal concentrations of unlabeled 4F; also recorded: B-4F content is increased in ECs incubated with 10 and 50 µg/ml | associates with IRF5 even in the presence of EC cytosolic proteins | 2.5 fold | 
2 | recombinant IRF5 (from UniProt Q13568 1-498) (natural protein) |  |  |  |  |  | 2.5 fold
